In test [1] the test system is Lassa virus. The test is described as follows: microbe, parasite or virus in culture. The test is classed as cell-based.
The test system of test [2] is Lassa virus. The experiment in a line: microbe, parasite or virus in culture. The following applies: Mammarenavirus lassaense, Vero C1008. It is filed as cell-based.
Where [3] appears, read: Mammarenavirus lassaense, Huh-7.

Values joined by “and” are separate entries in the source; they are usually repeats but may differ in a detail not shown here. Equal entries are not always repeated. Structures can show the parent of a compound that is named as a salt.

Turning to `Cl.NC(=O)c1cn([C@@H]2O[C@H](CO)[C@@H](O)[C@H]2O)c2ncnc(N)c12` [Oya2, 4-amino-7-((2R,3R,4S,5R)-3,4-dihydroxy-5-(hydroxymethyl)tetrahydrofuran-2-yl)-7H-pyrrolo[2,3-d]pyrimidine-5-carboxamide hydrochloride], the Inhibition – broadly, the percentage by which the read-out fell short of the control – in the test with Lassa virus [1] (0.0047 µM, hydrochloride) was 28.74% and 26.14% and 27.5%; in the test with Lassa virus [1] (0.0094 µM, hydrochloride), 21.1% and 20.68% and 22.57%.

On to `CN(C)CCOc1ccc(/C(=C(/CCCl)c2ccccc2)c2ccccc2)cc1` [Toremifene citrate, reference compound], for which the Inhibition is 31.7829% and 32.93% and 31.98% and 27.3% and 32.75% in the test with Lassa virus [1] (0.4688 µM); 22.38% and 19.16% and 30.38% and 25.19% and 18.19% with Lassa virus [1] (0.9375 µM); 18.84% and 15.13% and 24.79% and 16.6% and 19.82% with Lassa virus [1] (1.875 µM); 15.93% and 10.32% and 20.17% and 17.07% and 18.53% in the test on Lassa virus [1] (3.75 µM). In addition, the inhibition (commonly the relative decrease from the control value, in per cent) at 0.4688 µM with Lassa virus [1] (setting [3]) worked out at 37.4%. Further, in the test on Lassa virus [1] (setting [3]), the inhibition at 0.9375 µM was found to be 29.9%. Moreover, the inhibition at 1.875 µM in the test with Lassa virus [1] (setting [3]) amounted to 20.9%. Moreover, the inhibition at 3.75 µM in the test with Lassa virus [1] (setting [3]) worked out at 16.3%.

For `NC(=O)c1cn([C@@H]2O[C@H](CO)[C@@H](O)[C@H]2O)c2ncnc(N)c12` [Oya1, 4-amino-7-((2R,3R,4S,5R)-3,4-dihydroxy-5-(hydroxymethyl)tetrahydrofuran-2-yl)-7H-pyrrolo[2,3-d]pyrimidine-5-carboxamide], in the test on Lassa virus [2], the inhibition at 0.075 µM is 89.2%, the inhibition at 0.15 µM was 100%, the inhibition at 0.3 µM was 101% and the inhibition at 0.6 µM amounted to 101%. In the test on Lassa virus [1] (0.0047 µM), the Inhibition was 33.96% and 28.083% and 24.36% and 25.62% and 25.65%. Moreover, the Inhibition in the test with Lassa virus [1] (0.0094 µM) was 26.74% and 30.9% and 23.28% and 15.83% and 22.14% and 20.065%. Moreover, in the test on Lassa virus [1] (setting [3]), the inhibition at 0.0047 µM amounted to 32.3%, the inhibition at 0.15 µM came to 79.9%, the inhibition at 0.3 µM was found to be 97.6% and the inhibition at 0.6 µM worked out at 98.8%.

For the origin of these results see US20230285434A1 (priority 2020, published 2023).
